pIC50: −log10 of the molar value.
Tests used:
[1] = Intrinsic clearance rate and half-life in rat liver microsomes; type: in vitro ADME; conditions: for half-life: rat
Protocol: 1 mL of a dichloromethane solution was respectively added into centrifuge tubes filled with test substance powders K2 (molecular formula C23H27N3O4, 4.6 mg), K3 (molecular formula C23H26FN3O4, 5.0 mg) and K4 (molecular formula C23H25F2N3O4, 5.6 mg) for dissolving, and subjected to ultrasonic treatment for 30 min to obtain a K2 stock solution with the mass concentration of 4.6 mg/mL, a K3 stock solution with the mass concentration of 5.0 mg/mL and a K4 stock solution with the mass concentration of 5.6 mg/mL. The stock solutions were sealedly stored in a refrigerator at −20° C. for later use. Before use, the stock solutions were gradually diluted with methanol to corresponding mass concentration to respectively prepare 0.02, 0.05, 0.22, 0.49, 0.96, 2.37 and 4.90 ng/mL of K2 series standard sample working solutions, 0.02, 0.05, 0.10, 0.19, 1.00, 2.01 and 4.93 ng/mL K3 series standard sample working solutions, and 0.10, 0.20, 0.53, 0.96, 2.42, 5.10 and 10.10 ng/mL K4 series standard sample working solutions.
5 μL of the test drugs, 2 μL of rat liver microsomes and 468 μL of a PBS buffer solution were taken by using a pipette and prepared a premixed solution. The premixed solution was incubated for 5 min in a water bath kettle at 37° C., 47.5 μL of the premixed solution was taken after the incubation was finished, and the premixed solution, 100 μL of ice-cold acetonitrile and 2.5 μL of a PBS buffer solution were added to another new tube after to be gently mixed evenly to obtain a control group. The reaction was started by adding 22.5 μL of a NADPH solution to the remaining premixed solution, the reaction solution was gently pipetted, and the reaction was stopped by immediately taking 50 μL of the premixed solution and 100 μL of acetonitrile in a new tube. Then the incubation liquid was put into the water bath for incubation, 50 μL of the incubation liquid was respectively taken at 5 min, 10 min, 20 min, 30 min, 45 min, 60 min and 90 min, and the reaction was terminated by adding 100 μL of acetonitrile. The reaction solution was centrifuged at 12,000 r/min for 10 min, and the supernatant was taken and detected on a machine.
• Chromatographic column: Hypersil GOLD 100*2.1 mm 3 μm liquid chromatography column • Mobile phase: 0.1% formic acid aqueous solution (A); and 100% acetonitrile (B) • Gradient elution (0-1 min: 50% B, 1-5 min: 50% B-90% B, 5-7 min: 90% B, 7-7.1 min: 50% B, and 7.1-10 min: 50% B) • Flow rate: 0.3 ml/min; column temperature: 40° C.; and injection volume: 5 μL […]
Sample solutions were subjected to sample injection analysis under the chromatographic and mass spectrometry conditions, and the peak areas were recorded. […]

C4-2B cells = test: Migration, invasion and adhesion of C4-2B cells; type: cell-based; conditions: preliminary
Cathepsin B = Cathepsin B (Homo sapiens (Human), UniProt P07858); test: Screening of Cathepsin B, fluorescence; type: biochemical; conditions: >> inhibition rate did not exceed 20% at test concentration; > greater than 35%; ≈ about 50%; < less than 50%
Protocol: (§1) 10 μL of a buffer, a Cat B inhibitor and test compounds (1 μM and 10 μM) were added to 96-well plates to serve as an EC well, an IC well and an S well, respectively; 50 μL of a Cat B enzyme solution was added into all the wells respectively and the mixture was incubated for 10-15 min at room temperature to establish an enzyme inhibitor complex; 40 μL of a Cat B substrate solution was added into all the wells and the mixture was incubated for 30-60 min at room temperature; and the final volume of the reaction was 100 μL.
(§2) The screening method was the same as above, the concentrations of the test compounds were set between 0.1 nM and 10 μM, 4-5 concentrations were selected for detection, IC50 curves were drawn, and IC50 values were calculated.

Cathepsin K = Cathepsin K (Homo sapiens (Human), UniProt P43235); test: Cat K inhibitor screening kit, AFC substrate fluorescence; type: biochemical
Cathepsin K, sequence (P43235 115-329): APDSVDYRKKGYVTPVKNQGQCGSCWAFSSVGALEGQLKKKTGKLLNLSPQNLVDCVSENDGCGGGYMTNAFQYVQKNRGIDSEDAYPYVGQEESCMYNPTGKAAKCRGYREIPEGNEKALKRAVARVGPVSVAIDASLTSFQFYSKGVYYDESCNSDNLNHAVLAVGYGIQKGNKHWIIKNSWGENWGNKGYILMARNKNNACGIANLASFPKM
Protocol: Reagent information: Cat K inhibitor screening kit: batch number, 6L23K01500; supplier, BiVision. Drug preparation: compounds were dissolved in DMSO and prepared into 10 mM stock solutions. When in use, the stock solutions were prepared into the required concentrations by using a buffer.
Cathepsin K (CTSK, EC 3.4.22.38) is a lysosomal cysteine protease, participates in osteoclastic bone remodeling and resorption, and can further degrade collagen, gelatin and elastin. The cathepsin K inhibitor screening kit from Biovision uses the ability of the active cathepsin K to cleave a synthetic AFC-based peptide substrate to release AFC and the AFC can be easily quantified by using a fluorometer or fluorescent microplate reader. In the presence of a specific cathepsin K specific inhibitor, the cleavage of the substrate is reduced/eliminated, resulting in a reduction or complete loss of AFC fluorescence. The simple and high-throughput adaptive assay kit can be used to screen/study/characterize a potential inhibitor of the cathepsin K.
as §1, with “20 μL” for “10 μL”, “Cat K” for “Cat B”, “complex; 30” for “complex; 40”
The screening method was the same as 1.1, the concentrations of the test compounds were set between 0.1 nM and 10 μM, 4-5 concentrations were selected for detection, IC50 curves were drawn, and IC50 values were calculated.

Cathepsin S = test: Screening of Cathepsin S, fluorescence; type: biochemical; conditions: >> inhibition rate did not exceed 20% at test concentration; > greater than 35%; ≈ about 50%; < less than 50%
Protocol: as §1, with “a Cat S inhibitor and” for “a Cat B inhibitor and”, “a Cat S substrate solution” for “a Cat B substrate solution”
as §2

ICR mice = test: In-vivo toxicity study, single and multiple i.p. administration; conditions: for body weight vs vehicle group: all P>0.05
Protocol: Male ICR mice of 6-8 weeks were used as experimental subjects and randomly divided according to body weight after adaptive feeding for one week. Then compounds of different concentrations were prepared and used for single-administration and multiple-administration experiments by intraperitoneal injection (i.p), and a vehicle of the same component was used as a reference.
During this period, the body weight of the mice was measured daily. […] In the multiple-administration experiment, the administration doses of 50 mg/kg and 25 mg/kg were selected for administration at the frequency of once a day.

SMILES	Cat B/K ratio of inhibitory activities (Cathepsin B)	pIC50 (Cathepsin K)	Cat S/K ratio of inhibitory activities (Cathepsin S)	half-life [1] [min]	further results
CC(C)(C)CN(Cc1ccc(-c2ccc(F)cc2)cc1)c1nccc(C#N)n1 [Compound K4, 2-[(2,2-dimethylpropyl){[4-(4-fluorophenyl)phenyl]methyl}amino]pyrimidine-4-carbonitrile]					reduction of clearance rate compared with Ref-03 [1]: 2 times
CN1CCN(c2nc(-c3ccc(CN(CC(C)(C)C)c4nccc(C#N)n4)cc3)cs2)CC1 [Compound K18, 2-((4-(2-(4-methylpiperazin-1-yl)thiazol-4-yl)benzyl) (neopentyl)amino)pyrimidine-4-carbonitrile]	>>5,780	7.00 to 8.00	>>5,780		migration, invasion and adhesion of C4-2B cells (C4-2B cells): inhibit the migration, invasion and adhesion processes of the C4-2B cells in a concentration-dependent manner; in-vivo toxicity (overall) (ICR mice; ICR mice): relatively low in-vivo toxicity; body weight vs vehicle group (ICR mice; i.p. 50 mg/kg and 25 mg/kg once a day, one week): No significant difference; histopathology of liver, kidneys and heart vs vehicle group (ICR mice; multiple administration 50 mg/kg and single administration 500 mg/kg): no obvious pathological change was observed; body weight vs vehicle group (ICR mice; single i.p. administration 500 mg/kg and 300 mg/kg): No significant difference
O=C1COCC1NC(=O)[C@@H]1CCCC[C@H]1C(=O)N1CCc2[nH]c3ccccc3c2C1 (stereo partly drawn) [Compound K20, (1R,2R)-2-(2,3,4,5-tetrahydro-1H-pyrido[4,3-b]indole-2-carbonyl)-N-(4-oxotetrahydrofuran-3-yl)-cyclohexane-1-carboxamide]		7.00 to 8.00		46.6	
O=C1COC[C@@H]1NC(=O)[C@@H]1CCCC[C@H]1C(=O)N1CCc2c([nH]c3c(F)cccc23)C1 [Compound K21, (1R,2R)-2-(8-fluoro-2,3,4,9-tetrahydro-1H-pyrido[3,4-b]indole-2-carbonyl)-N—((S)-4-oxotetrahydrofuran-3-yl)cyclohexane-1-carboxamide]	>710	7.00 to 8.00	>710	42.4	
O=C1COC[C@@H]1NC(=O)[C@@H]1CCCC[C@H]1C(=O)N1CCc2c([nH]c3c(F)cc(F)cc23)C1 [Compound K22, (1R,2R)-2-(6,8-difluoro-2,3,4,9-tetrahydro-1H-pyrido[3,4-b]indole-2-carbonyl)-N—((S)-4-oxotetrahydrofuran-3-yl)cyclohexane-1-carboxamide]		7.00 to 8.00		88.5	

From patent publication US20250145576A1, “CATHEPSIN K INHIBITOR, AND PREPARATION METHOD THEREFOR AND USE THEREOF” (SHANDONG NEW TIME PHARMACEUTICAL CO., LTD., priority 2022, published 2025)
